± gives the expanded uncertainty stated by the source.
Assay: mn = molality of the nth substance listed, in mol/kg
Details: 101.3 kPa, Liquid, Vibrating tube method

Cc1cn([C@H]2CC(O)[C@@H](CO)O2)c(=O)[nH]c1=O (stereo partly drawn) [thymidine] + O
mass density [kg/m3]
Details	m1 = 0.00963	m1 = 0.01114	m1 = 0.01478	m1 = 0.02291	m1 = 0.02594	m1 = 0.0288
288.15 K	999.851 ± 0.18	999.964 ± 0.18	1000.24 ± 0.18	1000.84 ± 0.18	1001.06 ± 0.18	1001.27 ± 0.18
298.15 K	997.759 ± 0.18	997.871 ± 0.18	998.139 ± 0.18	998.733 ± 0.18	998.954 ± 0.18	999.162 ± 0.18
308.15 K	994.768 ± 0.18	994.878 ± 0.18	995.142 ± 0.18	995.73 ± 0.18	995.947 ± 0.18	996.152 ± 0.18
318.15 K	990.937 ± 0.18	991.046 ± 0.18	991.306 ± 0.18	991.881 ± 0.18	992.094 ± 0.18	992.294 ± 0.18

Nc1cc[nH]c(=O)n1 [4-amino-2-hydroxypyrimidine] + O
mass density [kg/m3]
Details	288.15 K	298.15 K	308.15 K	318.15 K
m1 = 0.00616	999.374 ± 0.088	997.282 ± 0.089	994.295 ± 0.09	990.472 ± 0.092
m1 = 0.01095	999.56 ± 0.088	997.461 ± 0.089	994.473 ± 0.09	990.648 ± 0.092
m1 = 0.01278	–	997.529 ± 0.089	–	–
m1 = 0.01633	999.767 ± 0.088	997.66 ± 0.088	994.67 ± 0.09	990.845 ± 0.091
m1 = 0.01855	–	997.743 ± 0.089	–	–
m1 = 0.01892	–	997.756 ± 0.089	–	–
m1 = 0.01961	999.894 ± 0.088	997.779 ± 0.089	994.791 ± 0.09	990.964 ± 0.091
m1 = 0.02682	1000.17 ± 0.088	998.042 ± 0.089	995.052 ± 0.09	991.228 ± 0.091
m1 = 0.02766	–	998.073 ± 0.089	–	–
m1 = 0.02813	–	998.09 ± 0.089	–	–
m1 = 0.03302	1000.4 ± 0.088	998.264 ± 0.088	995.271 ± 0.09	991.452 ± 0.091
m1 = 0.0353	–	998.345 ± 0.088	–	–

Cl.N=C(N)N [guanidine hydrochloride] + O
mass density [kg/m3]
Details	m1 = 0.1	m1 = 0.25	m1 = 0.5	m1 = 0.75	m1 = 1
288.15 K	1001.93 ± 0.089	1006.02 ± 0.091	1012.56 ± 0.095	1018.77 ± 0.099	1024.63 ± 0.1
298.15 K	999.788 ± 0.088	1003.75 ± 0.09	1010.1 ± 0.094	1016.1 ± 0.097	1021.79 ± 0.1
308.15 K	996.735 ± 0.089	1000.63 ± 0.088	1006.86 ± 0.092	1012.74 ± 0.095	1018.36 ± 0.099
318.15 K	992.885 ± 0.091	996.736 ± 0.089	1002.87 ± 0.089	1008.68 ± 0.093	1014.2 ± 0.096

O=c1cc[nH]c(=O)[nH]1 [2,4(1H,3H)-pyrimidinedione] + O
mass density [kg/m3]
Details	288.15 K	298.15 K	308.15 K	318.15 K
m1 = 0.00553	999.354 ± 0.088	997.267 ± 0.089	994.275 ± 0.09	990.452 ± 0.092
m1 = 0.00878	–	997.396 ± 0.089	–	–
m1 = 0.01162	999.599 ± 0.088	997.507 ± 0.09	994.508 ± 0.09	990.68 ± 0.092
m1 = 0.01202	–	997.522 ± 0.09	–	–
m1 = 0.01509	999.736 ± 0.088	997.643 ± 0.088	994.639 ± 0.09	990.808 ± 0.091
m1 = 0.01724	–	997.727 ± 0.089	–	–
m1 = 0.01985	999.924 ± 0.087	997.828 ± 0.088	994.818 ± 0.09	990.984 ± 0.091
m1 = 0.02348	–	997.97 ± 0.089	–	–
m1 = 0.02387	–	997.985 ± 0.089	–	–
m1 = 0.02487	–	998.023 ± 0.088	–	–
m1 = 0.02578	1000.15 ± 0.088	998.059 ± 0.089	995.038 ± 0.09	991.203 ± 0.091
m1 = 0.03026	1000.33 ± 0.088	998.232 ± 0.088	995.205 ± 0.09	991.367 ± 0.091

Cc1c[nH]c(=O)[nH]c1=O [thymine] + O
mass density [kg/m3]
Details	m1 = 0.00771	m1 = 0.01299	m1 = 0.01771	m1 = 0.02319	m1 = 0.02665	m1 = 0.03315
288.15 K	999.423 ± 0.088	999.622 ± 0.088	999.797 ± 0.088	1000 ± 0.087	1000.13 ± 0.088	1000.37 ± 0.088
298.15 K	997.334 ± 0.089	997.53 ± 0.089	997.704 ± 0.088	997.906 ± 0.088	998.033 ± 0.088	998.27 ± 0.088
308.15 K	994.344 ± 0.09	994.535 ± 0.09	994.705 ± 0.09	994.901 ± 0.09	995.023 ± 0.09	995.252 ± 0.09
318.15 K	990.518 ± 0.092	990.703 ± 0.092	990.867 ± 0.091	991.055 ± 0.091	991.172 ± 0.091	991.393 ± 0.091

— the NIST ThermoML archive (doi:10.1016/j.jct.2014.10.015)
